In data set [1] the target is T1, cyclooxygenase (Ovis aries, UniProt P05979).
T1 sequence (P05979 25-600): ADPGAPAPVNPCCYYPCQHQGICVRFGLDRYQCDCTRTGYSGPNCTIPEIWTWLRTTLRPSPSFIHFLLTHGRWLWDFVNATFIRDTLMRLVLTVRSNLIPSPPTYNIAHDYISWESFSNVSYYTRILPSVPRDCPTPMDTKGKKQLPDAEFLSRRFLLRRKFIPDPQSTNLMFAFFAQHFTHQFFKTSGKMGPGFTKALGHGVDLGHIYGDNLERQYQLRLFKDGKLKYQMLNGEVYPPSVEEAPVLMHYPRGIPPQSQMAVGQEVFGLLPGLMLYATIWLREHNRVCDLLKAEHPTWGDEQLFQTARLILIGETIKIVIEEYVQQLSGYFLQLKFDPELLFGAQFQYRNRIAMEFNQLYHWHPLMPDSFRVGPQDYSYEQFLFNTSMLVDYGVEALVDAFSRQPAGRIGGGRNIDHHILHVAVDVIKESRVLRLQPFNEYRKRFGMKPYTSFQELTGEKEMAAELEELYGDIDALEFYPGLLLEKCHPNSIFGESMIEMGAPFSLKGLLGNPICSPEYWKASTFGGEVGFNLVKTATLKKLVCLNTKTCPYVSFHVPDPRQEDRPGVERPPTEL
Nature of the data set: activity of cyclooxygenase in sheep seminal vesicle microsomes ([14C]-arachidonic acid, TLC). Format: biochemical. The settings on record: potassium phosphate buffer pH 7.0. As to the method: The effect of the acetohydroxamic acid compound of formula I on the activity of cyclooxygenase was tested using a suspension of sheep seminal vesicle microsomes in […] of potassium phosphate buffer of pH 7.0 which was incubated either with N-hydroxy-N-(thien-3-yl)methyl-acetamide or with a solvent only and [^14 C]-arachidonic acid. The IC50 values, i.e. the concentrations causing an inhibition of 50% of cyclooxygenase were determined by thin layer chromatography using a TLC-linear-analyzer.

A short description of data set [2]: solubility. Format: physicochemical.
The target in data set [3] is T2, 5 lipoxygenase (Homo sapiens, UniProt P09917).
T2 construct: endogenous in cells; host or cells: freshly drawn, heparinized human whole blood (blood leukocytes; the cell type is own knowledge)
T2 sequence (P09917 1-674): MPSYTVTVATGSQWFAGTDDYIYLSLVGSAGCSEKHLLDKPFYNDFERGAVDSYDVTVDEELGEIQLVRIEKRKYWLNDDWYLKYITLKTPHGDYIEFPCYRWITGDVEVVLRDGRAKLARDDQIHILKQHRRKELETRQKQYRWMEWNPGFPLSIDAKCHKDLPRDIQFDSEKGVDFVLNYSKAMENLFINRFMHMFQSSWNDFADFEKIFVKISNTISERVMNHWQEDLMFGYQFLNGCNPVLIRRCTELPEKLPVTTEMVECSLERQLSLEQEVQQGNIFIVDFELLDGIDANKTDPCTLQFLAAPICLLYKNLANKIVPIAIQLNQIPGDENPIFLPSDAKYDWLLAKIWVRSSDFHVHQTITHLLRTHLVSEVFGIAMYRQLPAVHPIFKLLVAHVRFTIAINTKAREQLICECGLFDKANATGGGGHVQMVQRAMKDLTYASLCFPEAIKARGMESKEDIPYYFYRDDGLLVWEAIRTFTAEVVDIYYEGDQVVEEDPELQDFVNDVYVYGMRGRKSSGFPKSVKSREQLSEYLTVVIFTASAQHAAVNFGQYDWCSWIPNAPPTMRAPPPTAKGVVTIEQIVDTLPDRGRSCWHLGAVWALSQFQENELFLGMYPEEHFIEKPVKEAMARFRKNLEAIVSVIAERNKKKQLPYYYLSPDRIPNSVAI
Nature of the data set: inhibition of 5 lipoxygenase in human blood (A23187-induced iLTB4 formation, RIA). Format: cell-based. The settings on record: heparinized human blood, A23187 15 μg/ml, 30 minutes at 37° C., iLTB4 by RIA; read-out: IC50-value, concentration causing an inhibition of 50% of 5 lipoxygenase. On the procedure: To determine the inhibition of 5 lipoxygenase, aliquots of freshly drawn, heparinized human blood were incubated at 37° C. in a water bath with addition of either N Hydroxy-N-(thien-3-yl)methyl-acetamide in different concentrations or a solvent. After 5 minutes the calcium ionophore A23187 was added to an end concentration of 15 μg/ml blood, and the incubation was continued for 30 minutes at 37° C. Then the samples were centrifuged to collect the cell free plasma. The content of the immunoreactive leucotriene B4 (iLTB4), in each sample was determined by radioimmunoassay "RIA" (^3 H-LTB4 -RIA, Amersham) with reference to a LTB4 standard curve and was calculated as ng iLTB4 /ml plasma. The percentage inhibition caused by the acetohydroxamic acid compound of formula I at various concentrations was calculated in comparison to the aliquots incubated with solvent only. N-hydroxy-N-(thien-3-yl)methyl-acetamide has an IC50 -value, i.e. the concentration causing an inhibition of 50% of 5 lipoxygenase, of 0.3 μmolar.

For data set [4], the system named is cell-free 5 lipoxygenase. Description: 5 lipoxygenase activity polarographically measured in 10,000×g supernatant of homogenized rat basophilic leukemia cells; release from complex. To be noted: RBL 10,000×g supernatant, arachidonic acid 75 μM, 5 minutes at 35° C.; complex of Example 3 versus free compound. It is filed as biochemical. As to the method:
To determine the rate and the extent of the release of N hydroxy-[…])methyl-acetamide from the complex prepared according to Example 3, the 5 lipoxygenase activity of cell-free 5 lipoxygenase was polarographically measured with oxygen electrodes in 10,000×g supernatant from homogenized rat basophilic leukemia cells (RBL i cells). After incubation of the 10,000×g supernatant with arachidonic acid (75 μM), adenosine triphosphate (4 mM), glutathione (4 mM), and either N hydroxy-[…])methyl-acetamide or a solvent for 5 minutes at 35° C., the lipoxygenase reaction was initiated by addition of calcium chloride and plotted simultaneously. The evaluation included the duration of the lag-phase as well as the initial rate of the reaction after the lag-phase. […] A significant amount of the acetohydroxamic acid compound is fully available in the biological test system even when the compound is originally administered in the form of a complex.

For data set [5], the system named is isolated tracheal strips of guinea pigs. Nature of the data set: anti-anaphylactic effect: ovalbumin-induced anaphylactic constrictions of isolated tracheal strips. The settings on record: Cavia porcellus; tracheal strips of actively sensitized guinea pigs, with mepyramine and indomethacin, 37° C.; Example 3 based on the complexed N-hydroxy-N-(thien-3-yl)methyl-acetamide content; read-out: IC50-value, inhibition of 50% of the anaphylactic constrictions. It is filed as cell-based, guinea pig. On the procedure: The anti-anaphylactic effect of N-hydroxy-[…])methyl-acetamide was tested using an in vitro model. […] The organs were connected to isometric force transducers. After incubation with mepyramine (elimination of histamine) and indomethacin (inhibition of cyclooxygenase resulting in an increase of the anaphylactic reaction) ovalbumin was added to the organ bath in cumulatively increasing concentrations. The resulting anaphylactic constrictions were inhibited by N-hydroxy-[…])methyl-acetamide which was added to the organ bath before the anaphylactic constrictions were elicited.

Data set [6] has as its system 5-lipoxygenase. Description: ex vivo iLTB4-formation in whole blood of rats after oral administration (bioavailability). Also on record: species or system rat (Wistar strain, male). As to the method: The bioavailability of the compound of formula I was characterized by means of an ex vivo biochemical assessment method described by Tateson et al. in Brit. J. Pharmacol. 528 (1988): N-Hydroxy-N-(thien-3-yl)methyl-acetamide was orally administered in a dose of 21.5 mg/kg to male rats (Wistar strain). One hour later blood was taken from the rats in lethal CO2 -narcosis. Aliquots of the blood were incubated for 30 minutes at 37° C. in a water bath with addition of calcium ionophore A 23 187 to an end concentration of 15 μg/ml. At the end of the incubation the samples were centrifuged to collect the cell free plasma. The concentration of the immunoreactive LTB4 (iLTB4 ng/ml) in each plasma sample was determined by radioimmunoassay (^3 H-LTB4 -RIA, Amersham) by means of a LTB4 -standard curve in diluted rat plasma. To determine the percent inhibition of ex vivo iLTB4 -formation in whole blood of rats treated with the compound of formula I, rats orally treated with an appropriate vehicle solution were included in all experiments, aliquots of their blood were run in parallel and were processed in the same manner as described. The mean iLTB4 formation per ml plasma of these vehicle treated rats served as the 100% value of normal 5-lipoxygenase activity. The percent inhibition of the ex vivo iLTB4 -formation after oral administration of the compound of formula I was calculated according to the following formula: […]
where Q represents the mean iLTB4 content in ng […] per ml plasma of the rats treated with the compound of formula I and C represents the mean iLTB4 content in ng iLTB4 per ml plasma of rats treated only with the vehicle.

A short description of data set [7]: toxicity. To be noted: observed only at far higher doses than therapeutic or prophylactic doses.
Data set [8] has as its system guinea pigs. Nature of the data set: antiasthmatic effect: ovalbumin-induced bronchoconstriction in anesthetized, ventilated, passively sensitized guinea pigs (Konzett-Roessler). Format: in vivo, guinea pig. As to the method:
The antiasthmatic effect of the compound according to the invention was tested in anesthetized and ventilated guinea pigs. In order to induce an asthmatic reaction, the animals were passively sensitized with a single intraperitoneal injection of antiovalbumin serum. After 48 hours the asthmatic reaction was elicited by intravenous challenge with 0.2 mg/kg of ovalbumin. The immediately resulting bronchoconstriction was measured as an increase in overflow according to the Konzett-Roessler method for a period of 10 minutes (Naunyn Schiedeberg's Arch. Exp. Path. Pharma. Vol. 195, 71-74 (1940)). Effects caused by histamine, serotonin and sympathic counterreaction were eliminated by intravenous pretreatment with 2.15 mg/kg of mepyramine, […] of propranolol, 4.64 mg/kg of atropine and 1 mg/kg of methysergide, all given 5 minutes before challenge. N-Hydroxy-N-(thien-3-yl)methyl-acetamide was orally administered 60 minutes before, intravenously administered 30 minutes before, and locally administered 2 minutes before the administration of ovalbumin.

Converted amounts (≈) assume the structure as drawn.

The term solubility denotes the concentration that dissolves in the medium under given conditions. Regarding `CC(=O)N(O)Cc1ccsc1` [Example 1, N-hydroxy-N-(thien-3-yl)methyl-acetamide], the “IC50-values for the inhibition of cyclooxygenase compared with IC50-values for 5-lipoxygenase” value in data set [1] is “significantly higher than the IC50 -values for the inhibition of 5-lipoxygenase”. Moreover, the solubility in data set [2] (organic solvent or mixture, water/ethanol 4:1 mixture) was 3000 µg/mL (≈ 17.5 mM); in data set [2] (phosphate buffer/ethanol 4:1, organic solvent or mixture, phosphate buffer (pH 7.4)/ethanol, 4:1 mixture), 3000 µg/mL (≈ 17.5 mM). Moreover, the IC50 came out at 300 nM in data set [3] and 10.2 µM in data set [5]. In data set [4], the “inhibition of the 5 lipoxygenase reaction” value is reported as “comparable effects”. Further, the “prolongation of the lag-phase of the 5 lipoxygenase reaction” value in data set [4] is listed as “comparable effects”. Moreover, the “percent inhibition of the ex vivo iLTB4-formation” value in data set [6] (21.5 mg/kg oral, male Wistar rats, blood taken one hour later, A23187 15 μg/ml) is on record as 95%. Moreover, the oral availability entry in data set [6] (oral, 21.5 mg/kg, rats, concluded from ex vivo iLTB4 inhibition) was “excellent oral availability”. Further, the “calculated dose with a semi-maximum inhibiting effect after oral administration” value in data set [6] (oral, rats, ex vivo iLTB4-formation, 60 min) was 5.6 mg/kg. Besides, in data set [7], the degree of toxicity result is listed as “low degree of toxicity”. Also, in data set [8] (21.5 mg/kg oral, 60 minutes before ovalbumin), the inhibition of bronchoconstriction came out at 42%. Also, the “resorption of the acetohydroxamic acid compound” value in data set [8] (oral 21.5 mg/kg (free) versus intravenous 21.5 mg/kg (complex), guinea pigs) was “high resorption”.

Values taken from patent publication US5252562A, “Acetohydroxamic compound and complexes pharmaceutical compositions containing them and processes of preparation and use” (Gruenenthal GmbH, priority 1991, dated 1993).
